According to publication PMC8632254 (Frontiers in Pharmacology, 2021):

How the values were obtained:
[1] = in vitro; conditions: African green monkey
[2] = tested on: SFTSV; experiment: microbe, parasite or virus in culture; format: cell-based; conditions: Severe fever with thrombocytopenia syndrome virus, Vero
[3] = tested on: SFTSV; format: cell-based, Severe fever with thrombocytopenia syndrome virus
[4] = tested on: SFTSV; experiment: microbe, parasite or virus in culture; format: cell-based, Severe fever with thrombocytopenia syndrome virus; conditions: for IC50: Severe fever with thrombocytopenia syndrome virus, HUVEC
[5] = in vitro; conditions: human
[6] = tested on: SFTSV; format: cell-based, Severe fever with thrombocytopenia syndrome virus; remark: listed apart in the source
[7] = tested on: SFTSV; format: cell-based, Severe fever with thrombocytopenia syndrome virus; remark: listed apart in the source
[8] = tested on: Rift Valley fever virus (RVFV); experiment: microbe, parasite or virus in culture; format: cell-based; conditions: HUVEC
[9] = tested on: SFTSV mini-genome; format: cell-based, Severe fever with thrombocytopenia syndrome virus
[10] = tested on: SARS-CoV-2; format: cell-based
[11] = tested on: SFTSV; format: cell-based, Severe fever with thrombocytopenia syndrome virus; remark: listed apart in the source
[12] = tested on: SARS-CoV-2; experiment: microbe, parasite or virus in culture; format: cell-based; conditions: Severe acute respiratory syndrome coronavirus 2, Vero C1008
[13] = tested on: SFTSV; set-up: species or system C57BL/6 mice; conditions: mouse, in vivo, ip, 4 mg/kg/day
[14] = tested on: SFTSV; format: cell-based, Severe fever with thrombocytopenia syndrome virus; remark: listed apart in the source
[15] = tested on: Rift Valley fever virus (RVFV); format: cell-based
[16] = tested on: SFTSV; conditions: mouse, in vivo, ip, 1 mg/kg/day
[17] = tested on: SFTSV; format: cell-based, Severe fever with thrombocytopenia syndrome virus; remark: listed apart in the source
[18] = tested on: HUVEC cells; conditions: human

Structure (SMILES): O=C1OC[C@H]2OC(O)[C@H](O)[C@@H](O)[C@@H]2OC(=O)c2cc(O)c(O)c(O)c2-c2c(O)c(O)c3oc(=O)c4c(c(O)c(O)c5oc(=O)c2c3c54)-c2c1cc(O)c(O)c2O (mixture of isomers) [Punicalin, punicalin]
- CC50 [1]: > 125 µM
- IC50 [2]: 3.8 µM
- virucidal effect on SFTSV virions [3]: directly inactivated virions in a dose dependent manner
- SI [4]: > 100
- IC50 [4]: 2.5 µM
- CC50 [5]: > 250 µM

Structure (SMILES): CC(C)=CCCC(C)(O)C1CCC2(C)C1C(O)CC1C3(C)CCC(OC4OC(CO)C(O)C(O)C4OC4OC(CO)C(O)C(O)C4OC4OCC(O)C(O)C4O)C(C)(C)C3CCC12C (stereo not shown) [Notoginsenoside Ft1, notoginsenoside Ft1]
- CC50 [1]: > 250 µM
- IC50 [2]: 3.5 µM
- IC50 [4]: 11 µM
- CC50 [5]: ~62.5 µM

Structure (SMILES): CC(=O)O[C@@H]1C[C@H](O)[C@@]23CO[C@@H](O)[C@]1(C)[C@@H]2C[C@@H](O)[C@]1(C)[C@@H]3C(=O)[C@H](OC(C)=O)[C@@]2(C)[C@H](c3ccoc3)C[C@H]3O[C@]321 [Toosendanin, toosendanin]
- SFTSV binding (vRNA level of bound virions) [6]: did not inhibit SFTSV binding
- Number of particles [7]: 20
- amount of internalized viral particles (microscopy) [7]: significantly reduced the amount of internalized viral particles
- IC50 [8]: 0.13 µM
- inhibition at 0.6 µM [8]: 72.6%
- inhibition at 1.8 µM [8]: 82%
- inhibition at 5.6 µM [8]: 95.5%
- inhibition at 16.7 µM [8]: 93.6%
- inhibition at 50 µM [8]: 95.1%
- viral RNA replication and transcription (mini-genome) [9]: did not affect the viral RNA replication and transcription
- time-of-addition result, SARS-CoV-2 [10]: revealed inhibitory effect when added 1 h post infection
- syncytium formation (viral fusion) [11]: No significant difference of syncytium formation
- IC50 [12]: 0.24 µM
- inhibition at 0.21 µM [12]: 42%
- inhibition at 0.62 µM [12]: 84.6%
- inhibition at 1.85 µM [12]: 92.4%
- inhibition at 5.6 µM [12]: 99%
- inhibition at 16.7 µM [12]: 99.5%
- inhibition at 50 µM [12]: 99.9%
- IC50 [2]: 1.2 µM
- antigen of SFTSV nucleoprotein in spleen sections [13]: reduced the antigen of SFTSV nucleoprotein in the spleen sections
- viral load in the serum [13]: significantly lower than that of the mice in the vehicle control group
- vRNA and viral protein expression, time of addition [14]: decreased significantly when toosendanin was added prior to but not post SFTSV infection
- time-of-addition result, RVFV [15]: inhibited the entry step of RVFV
- megakaryocytes accumulation in spleens (H&E) [16]: reduced the megakaryocytes accumulation
- viral antigen in spleen sections (immunohistochemistry) [16]: less viral protein positive cells was detected
- weight loss [16]: did not lead to weight loss
- virucidal effect on SFTSV virions [3]: no virucidal effect
- accumulation of vRNA (internalization), concentration series [17]: dose dependent inhibition effect on accumulation of vRNA
- relative intracellular vRNA (internalization) [17]: significantly reduced
- IC50 [4]: 0.052 µM
- CC50 [5]: > 250 µM
- CC50 [18]: > 450 µM
